Earlier results on seven molecules are cited in patent US20110293714A1, “PHARMACEUTICAL COMPOSITIONS SUITABLE FOR ORAL ADMINISTRATION OF DERIVATIZED INSULIN PEPTIDES” (priority 2008, published 2011).

Where two headings read alike, the source gives them in different places.

For the data set the following is noted: static electric fields or relatively low frequencies.

Take `CC(O)CO` (stereo not shown) [1,2-propanediol [propylene glycol], 1,2-propanediol]: the “Dielectric constant, ∈*” value (303.2 Kelvin) is listed as 27.5.

Take `CC(O)CCO` (stereo not shown) [1,3-butanediol]: under “293.2 Kelvin”, the “Dielectric constant, ∈*” value is on record as 28.8.

For `OCCCO` [1,3-propanediol], for the setting “293.2 Kelvin”, the “Dielectric constant, ∈*” value is on record as 35.1. For the molecule `CCO` [Ethanol], the “Dielectric constant, ∈*” value (293.2 Kelvin) is listed as 25.3. In the case of `CC(C)O` [Isopropanol], the “Dielectric constant, ∈*” value (293.2 Kelvin) is listed as 20.18. As for `CO` [Methanol], the “Dielectric constant, ∈*” value (293.2 Kelvin) is 33.0.

For the molecule `O` [Water], the “Dielectric constant, ∈*” value (293.2 Kelvin) was 80.1.
